# Experimental data reported in patent US10202391B2, “Chemical compounds” (AstraZeneca AB, priority 2015, dated 2019).
# Tests used:
# [1] = tested on: phospho-p90RSK in A375 cell line; assay: A375 Phospho-p90RSK Cellular Assay; type: cell-based, human; conditions: Homo sapiens, A375 cells, 2 hours incubation
# Protocol: (§1) All compounds or DMSO (dimethyl sulphoxide) for the ERK2 Mass Spectrometry and A375 phospho-p90RSK assays were dispensed from source plates containing compounds at 10 mM in 100% (v/v) DMSO or 100% DMSO, directly into assay plates using an Echo 555 Acoustic dispenser (Labcyte Inc™). Depending on the assay, two separate plate preparations were followed. In Workflow A, 10 mM compound stocks were diluted 1:100 using a fixed-tip 96-head Agilent VPrep liquid handler (Agilent Technologies, Santa Clara, Calif.) to give four intermediate dilutions (10 mM, 100 μM, 1 μM, 10 nM). In Workflow B, 10 mM compound stocks were diluted 1:10 using a Tecan Freedom Evo (Tecan Group Ltd., Switzerland), and then 1:100 using the Echo 555 and Labcyte LX to produce three intermediate dilutions across three Labcyte qualified source plates (1 mM, 10 μM, 100 nM). These intermediate dilution plates were then used by the Echo 555 to generate final assay-ready compound plates with a 12 point dose range (10, 3, 1, 0.25, 0.1, 0.03, 0.01, 0.0025, 0.001, 0.0003, 0.0001, 0.0000125 μM) in order to calculate compound IC50s, with a total DMSO concentration in the assay of 1%. For the ERK2 Mass Spectrometry assay Workflow B was used. For the A375 phospho-p90RSK cell assay, the intermediate 1:100 dilution plate described in Workflow A was used by the Echo to dispense compounds and DMSO directly into the cell plates with a 12 point dose range (30, 10, 3.125, 1.25, 0.3, 0.1, 0.03125, 0.0125, 0.003, 0.001, 0.0003125, 0.00003 μM) in order to calculate compound IC50's, with a total DMSO concentration in the assay of 0.3%.
# A375 Phospho-p90RSK Cellular Assay
# A375 cells were cultured in cell media composed of DMEM (Dulbecco's modified Eagle's medium), 10% (v/v) Foetal Calf Serum and 1% (v/v) L-Glutamine. After harvesting, cells were dispensed into black, 384-well Costar plates (#3712, Corning) to give 2400 cells per well in a total volume of 40 μl cell media, and were incubated overnight at 37° C., 90% relative humidity and 5% CO2 in a rotating incubator. Test compounds and reference controls were dosed directly into the cell plates using a Labcyte Echo 555 acoustic dispenser. The cell plates were then incubated for 2 hours at 37° C. before being fixed by the addition of 20 μl 12% formaldehyde in PBS/A (4% final concentration), followed by a 20 minute room temperature incubation, and then a 2× wash with 150 μl PBS/A (phosphate buffered saline containing albumin) using a BioTek ELx405 platewasher. Cells were permeabilised with 20 μl 0.1% Triton X-100 in PBS/A for 20 minutes at room temperature, and then washed 1× with 100 μl PBS/A. Primary phospho-p90RSK (Thr359) (D1E9) rabbit monoclonal antibody (#8753, Cell Signaling Technology) was diluted 1:1000 in assay buffer (0.05% (v/v) Tween, 5% (v/v) Foetal Calf Serum, in PBS/A), 20 μl added per well, and plates were incubated at 4° C. overnight. Cell plates were washed 2× with 200 μl PBS/T (phosphate buffered saline containing Tween-20), then 20 μl 1:500 dilution in assay buffer of Alexa Fluor® 647 goat anti-rabbit IgG secondary antibody (#A31573, Molecular Probes, Life Technologies), with a 1:5000 dilution of Hoechst 33342, was added per well. Following a 90 minute incubation at room temperature, plates were washed 2× with 200 μl PBS/T, and 40 μl PBS/A was added per well. Stained cell plates were covered with black lid seals, and then read on a Cellomics ArrayScan™ VTI imaging platform (Thermo Scientific), using an XF53 filter with 10× objective, with a LED light source set-up to analyse nuclear staining with Hoechst 33342 (405 nm) and secondary antibody staining of phospho-p90RSK (647 nm). Data was analysed and IC50's were calculated using Genedata Screener® software.
# [2] = target: T1, ERK2 (Homo sapiens, UniProt P28482); assay: ERK2 Rapidfire Mass Spectrometry Inhibition of Catalysis Assay; type: biochemical; conditions: 1.2 nM ERK2, 16 μM Erktide, 120 μM ATP (measured Km), 15 minute pre-incubation; read-out: ERK2 Mass Spectrometry Enzyme IC50
# T1 construct: made in house
# Protocol: as §1
# ERK2 Rapidfire Mass Spectrometry Inhibition of Catalysis Assay
# MEK U911-activated ERK2 protein was expressed and purified in-house. Enzyme and substrate solutions were made up in assay buffer consisting of 50 mM Tris (pH 7.5), 10 mM MgCl2, 0.1 mM EGTA (ethylene glycol tetraacetic acid), 10 mM DTT (dithiothreitol) and 0.01% (v/v) CHAPS (3-[(3-Cholamidopropyl)dimethylammonio]-1-propanesulfonate). 1.2 nM ERK2 protein was prepared in assay buffer and 10 μl was dispensed into each well of a polypropylene, 384-well plate (#781201, Greiner) containing test and reference control compounds. […] The reaction was allowed to progress for 20 minutes at room temperature before being quenched by the addition of 80 al 1% (v/v) formic acid. The assay plates were then run on the RapidFire Mass Spectrometry platform (Agilent) to measure substrate (unphosphorylated Erktide) and product (phosphorylated Erktide) levels. Data was analysed and IC50's (half maximal inhibitory concentration) were calculated using Genedata Screener® software.
# T1 sequence (P28482 whole entry): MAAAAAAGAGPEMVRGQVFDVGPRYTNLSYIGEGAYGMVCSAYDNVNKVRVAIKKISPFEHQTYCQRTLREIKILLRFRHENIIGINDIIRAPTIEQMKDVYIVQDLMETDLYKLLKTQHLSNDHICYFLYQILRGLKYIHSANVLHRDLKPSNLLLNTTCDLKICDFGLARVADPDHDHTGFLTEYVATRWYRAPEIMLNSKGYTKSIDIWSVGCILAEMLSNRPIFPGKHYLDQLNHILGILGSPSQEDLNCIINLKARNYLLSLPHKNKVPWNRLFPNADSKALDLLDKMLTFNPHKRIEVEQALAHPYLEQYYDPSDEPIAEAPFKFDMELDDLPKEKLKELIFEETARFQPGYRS
Structure (SMILES),IC50 ([1]; A-375) [nM],IC50 [2] [nM],"IC50 ([1]; A-375, 2 h) [nM]"
"Cc1cnc(Nc2ccnn2C)nc1-c1cn2c(n1)C(=O)N(Cc1ccnc(C(F)(F)F)n1)[C@@H](C)C2 [Example 26, (S)-6-methyl-2-(5-methyl-2-((1-methyl-1H-pyrazol-5-yl)amino)pyrimidin-4-yl)-7-((2-(trifluoromethyl)pyrimidin-4-yl)methyl)-6,7-dihydroimidazo[1,2-a]pyrazin-8(5H)-one]",200,1.1,–
"Cc1cnc(Nc2ccnn2C)nc1-c1cn2c(n1)C(=O)N(Cc1cc(C(F)(F)F)ccn1)[C@@H](C)C2 [Example 29, (S)-6-Methyl-2-(5-methyl-2-((1-methyl-1H-pyrazol-5-yl)amino)pyrimidin-4-yl)-7-((4-(trifluoromethyl)pyridin-2-yl)methyl)-6,7-dihydroimidazo[1,2-a]pyrazin-8(5H)-one]",130,0.9,–
"Cc1cnc(Nc2ccnn2C)nc1-c1cn2c(n1)C(=O)N(Cc1cc(C(F)F)ccn1)[C@@H](C)C2 [Example 31, (S)-7-((4-(Difluoromethyl)pyridin-2-yl)methyl)-6-methyl-2-(5-methyl-2-((1-methyl-1H-pyrazol-5-yl)amino)pyrimidin-4-yl)-6,7-dihydroimidazo[1,2-a]pyrazin-8(5H)-one]",140,0.8,–
"Cc1cnc(Nc2ccnn2C)nc1-c1cn2c(n1)C(=O)N(Cc1cc(C(F)(F)F)ncn1)[C@@H](C)C2 [Example 32, (S)-6-Methyl-2-(5-methyl-2-((1-methyl-1H-pyrazol-5-yl)amino)pyrimidin-4-yl)-7-((6-(trifluoromethyl)pyrimidin-4-yl)methyl)-6,7-dihydroimidazo[1,2-a]pyrazin-8(5H)-one]",99,0.9,–
"Cc1cnc(Nc2ccnn2C)nc1-c1cn2c(n1)C(=O)N(Cc1ccc(F)c(F)c1)CC2 [Example 33, 7-(3,4-Difluorobenzyl)-2-(5-methyl-2-((1-methyl-1H-pyrazol-5-yl)amino)pyrimidin-4-yl)-6,7-dihydroimidazo[1,2-a]pyrazin-8(5H)-one]",–,0.8,31
"Cc1cnc(Nc2ccnn2C)nc1-c1cn2c(n1)C(=O)N(Cc1cccc(C(F)(F)F)n1)[C@H](C)C2 [Example 36, (R)-6-Methyl-2-(5-methyl-2-((1-methyl-1H-pyrazol-5-yl)amino)pyrimidin-4-yl)-7-((6-(trifluoromethyl)pyridin-2-yl)methyl)-6,7-dihydroimidazo[1,2-a]pyrazin-8(5H)-one]",51,1.4,–

# Next, values leading:
IC50 ([1]; A-375) [nM],IC50 [2] [nM],"IC50 ([1]; A-375, 2 h) [nM]",Structure (SMILES)
5.3,0.5,–,"Cc1cnc(Nc2ccnn2C)nc1-c1cn2c(n1)C(=O)N(Cc1cccc(Cl)c1)[C@@H](C)C2 [Example 19, (S)-7-(3-Chlorobenzyl)-6-methyl-2-(5-methyl-2-((1-methyl-1H-pyrazol-5-yl)amino)pyrimidin-4-yl)-6,7-dihydroimidazo[1,2-a]pyrazin-8(5H)-one]"
–,0.4,38,"Cc1cnc(Nc2ccnn2C)nc1-c1cn2c(n1)C(=O)N(Cc1ccc(F)c(F)c1)[C@@H](C)C2 [Example 20, (S)-7-(3,4-Difluorobenzyl)-6-methyl-2-(5-methyl-2-((1-methyl-1H-pyrazol-5-yl)amino)pyrimidin-4-yl)-6,7-dihydroimidazo[1,2-a]pyrazin-8(5H)-one]"
11,0.6,–,"Cc1cnc(Nc2ccnn2C)nc1-c1cn2c(n1)C(=O)N(Cc1cccc(C(F)F)c1)[C@@H](C)C2 [Example 21, (S)-7-(3-(Difluoromethyl)benzyl)-6-methyl-2-(5-methyl-2-((1-methyl-1H-pyrazol-5-yl)amino)pyrimidin-4-yl)-6,7-dihydroimidazo[1,2-a]pyrazin-8(5H)-one]"
19,0.8,–,"Cc1cnc(Nc2ccnn2C)nc1-c1cn2c(n1)C(=O)N(Cc1cc(F)cc(F)c1)[C@@H](C)C2 [Example 22, (S)-7-(3,5-Difluorobenzyl)-6-methyl-2-(5-methyl-2-((1-methyl-1H-pyrazol-5-L)amino)pyrimidin-4-yl)-6,7-dihydroimidazo[1,2-a]pyrazin-8(5H)-one]"
40,0.6,–,"COc1cccc(CN2C(=O)c3nc(-c4nc(Nc5ccnn5C)ncc4C)cn3C[C@@H]2C)c1 [Example 23, (S)-7-(3-Methoxybenzyl)-6-methyl-2-(5-methyl-2-((1-methyl-1H-pyrazol-5-yl)amino)pyrimidin-4-yl)-6,7-dihydroimidazo[1,2-a]pyrazin-8(5H)-one]"
84,0.5,–,"COc1cc(CN2C(=O)c3nc(-c4nc(Nc5ccnn5C)ncc4C)cn3C[C@@H]2C)ccc1F [Example 24, (S)-7-(4-Fluoro-3-methoxybenzyl)-6-methyl-2-(5-methyl-2-((1-methyl-1H-pyrazol-5-yl)amino)pyrimidin-4-yl)-6,7-dihydroimidazo[1,2-a]pyrazin-8(5H)-one]"
130,0.7,–,"Cc1cnc(Nc2ccnn2C)nc1-c1cn2c(n1)C(=O)N(Cc1cccc(C(F)F)n1)[C@@H](C)C2 [Example 25, (S)-7-((6-(Difluoromethyl)pyridin-2-yl)methyl)-6-methyl-2-(5-methyl-2-((1-methyl-1H-pyrazol-5-yl)amino)pyrimidin-4-yl)-6,7-dihydroimidazo[1,2-a]pyrazin-8(5H)-one]"
77,0.8,–,"Cc1cnc(Nc2ccnn2C)nc1-c1cn2c(n1)C(=O)N(Cc1cccc(C(F)(F)F)n1)[C@@H](C)C2 [Example 27, (S)-6-Methyl-2-(5-methyl-2-((1-methyl-1H-pyrazol-5-yl)amino)pyrimidin-4-yl)-7-((6-(trifluoromethyl)pyridin-2-yl)methyl)-6,7-dihydroimidazo[1,2-a]pyrazin-8(5H)-one]"
110,0.5,–,"Cc1cnc(Nc2ccnn2C)nc1-c1cn2c(n1)C(=O)N(Cc1cccc(OC(F)F)c1)[C@@H](C)C2 [Example 28, (S)-7-(3-(Difluoromethoxy)benzyl)-6-methyl-2-(5-methyl-2-((1-methyl-1H-pyrazol-5-yl)amino)pyrimidin-4-yl)-6,7-dihydroimidazo[1,2-a]pyrazin-8(5H)-one]"
200,0.7,–,"Cc1cnc(Nc2ccnn2C)nc1-c1cn2c(n1)C(=O)N(Cc1ccnc(C(F)(F)F)c1)[C@@H](C)C2 [Example 30, (S)-6-Methyl-2-(5-methyl-2-((1-methyl-1H-pyrazol-5-yl)amino)pyrimidin-4-yl)-7-((2-(trifluoromethyl)pyridin-4-yl)methyl)-6,7-dihydroimidazo[1,2-a]pyrazin-8(5H)-one]"
